Measured values taken from PMC9394307, “Discovery of Putative Dual Inhibitor of Tubulin and EGFR by Phenotypic Approach on LASSBio-1586 Homologs” (Pharmaceuticals, 2022).
“And” between values parts separate entries of the source, which are not always exact repeats. Equal entries are not always repeated. Where two headings read alike, the source gives them in different places.

Experiments:
HL-60 = test: MTT cell viability assay, HL-60; assay type: cell-based, human; conditions: Homo sapiens, MTT, value (95% CI), read-out: CC50 (µM) (CI) HL-60
Method: (§1) The cytotoxic activity of compounds 3–13 was determined based on an MTT assay against different human tumor cell lines, using LASSBio-1586 (2), LASSBio-1735 (3), CA-4 (1) and pelitinib as standards (Table 2). To determine the cytotoxic selectivity index, compounds were also evaluated toward human lymphocytes (Table 3).
(§2) The target compounds were tested (0.0001–100 µM) for cytotoxic activity against selected human cancer cell lines, such as HL-60 (acute promyelocytic leukemia), MCF-7 (mammary adenocarcinoma), PC-3 (prostate adenocarcinoma), H1975 (non-small cell lung cancer—EGFR^L858R+T790M), PC-9 (non-small cell lung cancer—EGFR^L858R) H292 (mucoepidermoid pulmonary carcinoma—EGFR wild type), LoVo (colorectal adenocarcinoma—EGFRwild type) and GM16000 (lymphocyte). All the human cancer cell lines were purchased from Cell Bank of Rio de Janeiro—BCRJ. They were cultured in RPMI 1640 medium with 10% (v/v) FBS, 2 mM glutamine, at 37 °C in a humidified incubator containing 5% CO2.
(§3) The cytotoxicity of the compounds was evaluated by the MTT assay. […] For lymphocytic lines, a density of 0.3 × 10^6 cells/mL was used. Afterwards they were treated with varying concentrations of the target compounds 2–12 (0.0001–100 µM), CA-4 (1) and pelitinib at 37 °C, in triplicate. The medium was incubated with 20 μL of 5 mg/mL MTT solution for 3 h in a humidified incubator containing 5% CO2 [11].
(§4) The purple-colored formazan crystals formed in the wells were dissolved in DMSO and their absorbance was measured at 595 nm with a microplate reader (SpectraMax M5, Molecular Devices).

H1975 = test: MTT cell viability assay, H1975; assay type: cell-based, human; conditions: Homo sapiens, MTT, value (95% CI), read-out: CC50 (µM) (CI) H1975
Method: as §1, §2, §3, §4

H292 = test: MTT cell viability assay, H292; assay type: cell-based, human; conditions: Homo sapiens, MTT, value (95% CI), read-out: CC50 (µM) (CI) H292
Method: as §1, §2, §3, §4

LoVo [1] = test: MTT cell viability assay, LoVo; assay type: cell-based; conditions: Homo sapiens, MTT, 72 h, value (95% CI), read-out: CC50 (µM) (CI) LoVo
Method: as §1, §2
(§5) The cytotoxicity of the compounds was evaluated by the MTT assay. The cell lines were cultured in 96 well plates for 72 h with a density of 0.1 × 10^5 cells/mL to 0.7 × 10^5 cells/mL to adherent cell lines. For lymphocytic lines, a density of 0.3 × 10^6 cells/mL was used. Afterwards they were treated with varying concentrations of the target compounds 2–12 (0.0001–100 µM), CA-4 (1) and pelitinib at 37 °C, in triplicate. The medium was incubated with 20 μL of 5 mg/mL MTT solution for 3 h in a humidified incubator containing 5% CO2 [11].
as §4

MCF-7 = test: MTT cell viability assay, MCF-7; assay type: cell-based, human; conditions: Homo sapiens, MCF7, 72 h, MTT, 72 h; value (95% CI); read-out: CC50 (µM) (CI) MCF-7
Method: as §1, §2, §5, §4

PC-3 = test: MTT cell viability assay, PC-3; assay type: cell-based; conditions: Homo sapiens, PC-3; MTT, 72 h; value (95% CI); read-out: CC50 (µM) (CI) PC-3
Method: as §1, §2, §5, §4

PC-9 = test: MTT cell viability assay, PC-9; assay type: cell-based, human; conditions: Homo sapiens, MTT, value (95% CI), read-out: CC50 (µM) (CI) PC-9
Method: as §1, §2, §3, §4

[2] = MTT cell viability assay, GM16000 lymphocytes; assay type: cell-based; conditions: GM16000 lymphocyte cells (non-tumor), human lymphocytes, value (95% CI)
Method: as §1
To establish the cytotoxic selective index (SI) of LASSBio-1586 homologs, they were studied on human lymphocyte cell lines (GM16000), using the MTT assay. The SI was calculated by the ratio between the CC50 on tumor and non-tumor cell lines. Although there is no consensus, values of SI ≥ 10 is considered satisfactory to assign safety to a new cytotoxic agent. This value means that the compound is more than ten times more cytotoxic to the tumor cell line than to normal cell line.
as §2, §5, §4

LoVo [3] = test: MTT cell viability assay, LoVo; assay type: cell-based; conditions: Homo sapiens, 48 h, value (95% CI)
[4] = MTT cell viability assay, GM16000 lymphocytes; assay type: cell-based; conditions: GM16000 lymphocyte cells (non-tumor), human lymphocytes, value (95% CI); remark: listed apart in the source
H1975 cells = test: Immunofluorescence of β-tubulin / microtubules; assay type: cell-based, human; conditions: H1975, 48 h; CA-4 0.3 µM, vincristine 0.5 µM, taxol 0.1 µM, LASSBio-1586 10 µM, LASSBio-1735 0.5 µM, LASSBio-2070 4.5 µM, LASSBio-2074 20 µM
Method: Antitubulin agents have been broadly classified into destabilizing or stabilizing agents, based on their interference with the dynamic balance of polymerization or depolymerization of microtubules. […] CA-4 (1, 0.3 µM), vincristine (0.5 µM) and taxol (0.1 µM) were used as standard controls.
After incubation, cells were rinsed with PBS and fixed with 4% paraformaldehyde in PBS for 10 min at room temperature. They were then permeabilized with 0.5% Triton-X 100 in PBS 3 times for 10 min. The same solution was used for all subsequent washing steps. Cells were incubated with an anti-beta-tubulin antibody for 1 h at 37 °C. After incubation, cells were washed for 30 min and incubated with Alexa Fluor® 488, conjugated secondary antibody for 1 h at 37 °C, and nuclei were labeled with DAPI (0.1 mg/mL in 0.9% NaCl).
Live cultured cells grown in coverslips were mounted in Prolong Gold solution (Molecular Probes, USA) and were imaged on a Leica TCS SPE confocal microscope (Leica Microsystems, Germany) using 63x 1.3 N.A. oil immersion and the images acquired by the LAS X software. Cell morphology, focusing on the microtubules was analyzed, qualitatively, using the public domain NIH ImageJ Program (developed at the National Institutes of the USA Health and available on the internet at http://imagej.nih.gov/ij/ (accessed on 1 September 2021).

## CCCN(/N=C/c1ccccc1)C(=O)c1cc(OC)c(OC)c(OC)c1 [LASSBio-2118 (5), (E)-N’-benzylidene-3,4,5-trimethoxy-N-propylbenzohydrazide]
HL-60; HL-60, 48 h, 48 h
  CC50: 1.46 µM
HL-60; HL-60, 72 h, 72 h
  CC50: 0.301 µM
H1975; NCI-H1975, 48 h, 48 h
  CC50: 1.12 µM
H1975; NCI-H1975, 72 h, 72 h
  CC50: 0.775 µM
H292; NCI-H292, 48 h, 48 h
  CC50: 0.181 µM
H292; NCI-H292, 72 h, 72 h
  CC50: 3.72 µM
LoVo [1]
  CC50: 0.031 µM
MCF-7
  CC50: 0.144 µM
PC-3
  CC50: 0.432 µM
PC-9; PC-9, 48 h, 48 h
  CC50: 0.263 µM
PC-9; PC-9, 72 h, 72 h
  CC50: 0.136 µM
[2]
  CC50 at 72 h: 0.843 µM
LoVo [3]
  CC50: 0.74 µM
[4]
  CC50 at 48 h: 1.1 µM

## C=CCN(/N=C/c1ccccc1)C(=O)c1cc(OC)c(OC)c(OC)c1 [LASSBio-2069 (8), (E)-N-allyl-N’-benzylidene-3,4,5-trimethoxybenzohydrazide]
HL-60; HL-60, 48 h, 48 h
  CC50: 0.526 µM
HL-60; HL-60, 72 h, 72 h
  CC50: 1.35 µM
H1975; NCI-H1975, 48 h, 48 h
  CC50: 1.65 µM
H1975; NCI-H1975, 72 h, 72 h
  CC50: 3.74 µM
H292; NCI-H292, 48 h, 48 h
  CC50: 0.154 µM
H292; NCI-H292, 72 h, 72 h
  CC50: 0.778 µM
LoVo [1]
  CC50: 0.298 µM
MCF-7
  CC50: 1.6 µM
PC-3
  CC50: 0.462 µM
PC-9; PC-9, 48 h, 48 h
  CC50: 0.276 µM
PC-9; PC-9, 72 h, 72 h
  CC50: 0.387 µM
[2]
  CC50 at 72 h: 0.83 µM
other
  melting point: 64.47 °C and 64 to 65 °C
LoVo [3]
  CC50: 0.808 µM
[4]
  CC50 at 48 h: 0.095 µM

## COc1cc(C(=O)N(CCN2CCOCC2)/N=C/c2ccccc2)cc(OC)c1OC [LASSBio-2122 (12), (E)-N’-benzylidene-3,4,5-trimethoxy-N-(2-morpholinoethyl)benzohydrazide]
HL-60; HL-60, 48 h, 48 h
  CC50: 5.09 µM
HL-60; HL-60, 72 h, 72 h
  CC50: 4.15 µM
H1975; NCI-H1975, 48 h, 48 h
  CC50: 6.37 µM
H1975; NCI-H1975, 72 h, 72 h
  CC50: 2.48 µM
H292; NCI-H292, 48 h, 48 h
  CC50: 0.412 µM
H292; NCI-H292, 72 h, 72 h
  CC50: 2.79 µM
LoVo [1]
  CC50: 0.421 µM
MCF-7
  CC50: 4.11 µM
PC-3
  CC50: 2.4 µM
PC-9; PC-9, 48 h, 48 h
  CC50: 1.5 µM
PC-9; PC-9, 72 h, 72 h
  CC50: 0.871 µM
[2]
  CC50 at 72 h: 5.65 µM
LoVo [3]
  CC50: 1.05 µM
[4]
  CC50 at 48 h: 3.8 µM

## CC[C@]1(O)C[C@H]2CN(CCc3c([nH]c4ccccc34)[C@@](C(=O)OC)(c3cc4c(cc3OC)N(C=O)[C@H]3[C@@](O)(C(=O)OC)[C@H](OC(C)=O)[C@]5(CC)C=CCN6CC[C@]43[C@@H]65)C2)C1 [vincristine, reference compound]
H1975 cells
  cell morphology after treatment: rounded shape
  effect on microtubules (stabilizing / destabilizing profile): typical response of microtubule destabilizing agents

## C#CCN(/N=C/c1ccccc1)C(=O)c1cc(OC)c(OC)c(OC)c1 [LASSBio-2072 (9), (E)-N’-benzylidene-3,4,5-trimethoxy-N-(prop-2-yn-1-yl)benzohydrazide]
HL-60; HL-60, 48 h, 48 h
  CC50: 5.85 µM
HL-60; HL-60, 72 h, 72 h
  CC50: 0.158 µM
H1975; NCI-H1975, 48 h, 48 h
  CC50: 5.34 µM
H1975; NCI-H1975, 72 h, 72 h
  CC50: 3.98 µM
H292; NCI-H292, 48 h, 48 h
  CC50: 0.45 µM
H292; NCI-H292, 72 h, 72 h
  CC50: 3.14 µM
LoVo [1]
  CC50: 0.399 µM
MCF-7
  CC50: 2.32 µM
PC-3
  CC50: 2.25 µM
PC-9; PC-9, 48 h, 48 h
  CC50: 1.27 µM
PC-9; PC-9, 72 h, 72 h
  CC50: 0.46 µM
[2]
  CC50 at 72 h: 0.612 µM
other
  melting point: 133.91 °C and 133 to 134 °C
LoVo [3]
  CC50: 3.05 µM
[4]
  CC50 at 48 h: 2.52 µM

## CCCCN(/N=C/c1ccccc1)C(=O)c1cc(OC)c(OC)c(OC)c1 [LASSBio-2121 (6), (E)-N’-benzylidene-N-butyl-3,4,5-trimethoxybenzohydrazide]
HL-60; HL-60, 48 h, 48 h
  CC50: 2.61 µM
HL-60; HL-60, 72 h, 72 h
  CC50: 2.17 µM
H1975; NCI-H1975, 48 h, 48 h
  CC50: 1.71 µM
H1975; NCI-H1975, 72 h, 72 h
  CC50: 2.94 µM
H292; NCI-H292, 48 h, 48 h
  CC50: 0.215 µM
H292; NCI-H292, 72 h, 72 h
  CC50: 9.55 µM
LoVo [1]
  CC50: 0.5 µM
MCF-7
  CC50: 0.5 µM
PC-3
  CC50: 0.696 µM
PC-9; PC-9, 48 h, 48 h
  CC50: 0.327 µM
PC-9; PC-9, 72 h, 72 h
  CC50: 0.096 µM
[2]
  CC50 at 72 h: 0.961 µM
LoVo [3]
  CC50: 2 µM
[4]
  CC50 at 48 h: 1.2 µM

## CCOc1cc2ncc(C#N)c(Nc3ccc(F)c(Cl)c3)c2cc1NC(=O)/C=C/CN(C)C [Pelitinib, reference compound]
HL-60; HL-60, 48 h, 48 h
  CC50: 3.42 µM
HL-60; HL-60, 72 h, 72 h
  CC50: 2.08 µM
H1975; NCI-H1975, 48 h, 48 h
  CC50: 2.57 µM
H1975; NCI-H1975, 72 h, 72 h
  CC50: 0.512 µM
H292; NCI-H292, 48 h, 48 h
  CC50: 0.48 µM
H292; NCI-H292, 72 h, 72 h
  CC50: 0.0784 µM
LoVo [1]
  CC50: 0.037 µM
MCF-7
  CC50: 3.91 µM
PC-3
  CC50: 2.48 µM
PC-9; PC-9, 48 h, 48 h
  CC50: 0.325 µM
PC-9; PC-9, 72 h, 72 h
  CC50: 0.0591 µM
[2]
  CC50 at 72 h: 2.75 µM
LoVo [3]
  CC50: 1.7 µM
[4]
  CC50 at 48 h: 0.899 µM

## CC(=O)O[C@H]1C(=O)[C@@]2(C)[C@H]([C@H](OC(=O)c3ccccc3)[C@]3(O)C[C@H](OC(=O)[C@H](O)[C@@H](NC(=O)c4ccccc4)c4ccccc4)C(C)=C1C3(C)C)[C@]1(OC(C)=O)CO[C@@H]1C[C@@H]2O [taxol, reference compound]
H1975 cells
  cell morphology after treatment: more spread-out morphology
